In brackets after ≈: the same amount, converted by molar mass.
How the values were obtained:
P388 = experiment: Growth inhibition of mouse P388 cells; type: functional
MCF7 = experiment: Growth inhibition of human MCF7 cells; type: functional

GI50 (MCF7) [µg/mL] | Structure (SMILES) | GI50 (P388) [µg/mL]
– | CCC(C)[C@@H]1OC(=O)[C@H](C)OC(=O)[C@@H](NC(=O)c2cccc(NC=O)c2O)[C@@H](C)OC(=O)[C@H](CC(C)C)OC(=O)C(C)(C)C(=O)[C@H](CC(C)C)NC1=O (some centres undefined) [RESPIRANTIN] | 0.0037 (≈ 0.00495 µM)
– | CCC(C)[C@@H]1OC(=O)[C@H](C)OC(=O)[C@@H](NC(=O)c2cccc(N)c2O)[C@@H](C)OC(=O)[C@H](CC(C)C)OC(=O)C(C)(C)C(=O)[C@H](CC(C)C)NC1=O (some centres undefined) [KITASTATIN] | 0.045 (≈ 0.0625 µM)
0.00062 (≈ 0.000845 µM) | CCC(C)[C@@H]1OC(=O)[C@H](C)OC(=O)[C@@H](NC(=O)c2cccc(NC=O)c2O)[C@@H](C)OC(=O)[C@H](C(C)C)OC(=O)C(C)(C)C(=O)[C@H](CC(C)C)NC1=O (some centres undefined) | 0.033 (≈ 0.045 µM)
